# How the values were obtained:
# [1] = Plasma pharmacokinetics of AZD5582 in infant RMs (HPLC-MS/MS, NCA); format: in vivo, rhesus macaque
# Procedure: As a potential explanation for the dampened virologic response to AZD5582 observed in infant RMs, we investigated AZD5582 pharmacokinetics (PK) following the third dose using a sparse sampling design. Blood samples were collected immediately following infusion in 4 RMs and from 2 RMs per time point at 1 h, 2 h, 4 h, 8 h, and 24 h postinfusion. […] Noncompartmental analysis (NCA) was conducted to determine pharmacokinetic parameters in infants and compared with available PK data from adult historical controls of SIV-infected, ART-suppressed rhesus macaques (n = 7) given matched doses of AZD5582 (Fig. 4B) ([17]). […] Although corresponding data were not collected from adult macaques, we note that in infants the AUC0-24h was calculated as 239 ng × hr/mL.
# Plasma samples were collected from RMs over 24 h following the start of a single 30 min intravenous infusion of AZD5582 using a previously published ([17]). A high-performance liquid chromatography-mass spectrometry (HPLC-MS/MS) method with a dynamic range of 0.2 to 1000 ng/mL. Noncompartmental analysis (NCA) was performed using Phoenix64 WinNonlin v8.1 software using the sparse sampling function to derive mean PK parameters. The linear up-log down trapezoidal rule was used to calculate AUC. The terminal elimination rate constant (kel) was estimated by fitting a linear regression line on a semilog plot to the individual concentration data constrained to observations from 4 to 24 h post start of infusion and used to calculate terminal elimination half-life. One observation below the assay’s limit of quantification was imputed at ½ the lower limit of quantification ([35]).
# [2] = system: NF-κB associated genes in CD4+ T cells; test: RNA-Seq of peripheral CD4+ T cells pre- and post-AZD5582; format: in vivo, rhesus macaque
# Procedure: Treatment with AZD5582 in SIV-infected, ART-suppressed adult RMs upregulates key genes associated with signaling through the ncNF-kB pathway, rather than the canonical NF-κB (cNF-kB) pathway in CD4^+ T cells ([17]). Here, we performed RNA-Seq in total CD4^+ T cells isolated from the peripheral blood of AZD5582-treated infant macaques at baseline (pre-dose 1) and the end of the treatment period (post-dose 10).
# RNA-sequencing (RNA-seq) analysis was conducted at the Yerkes Nonhuman Primate Genomics Core Laboratory (http://www.yerkes.emory.edu/nhp_genomics_core/). RNA was purified from 50,000 peripheral blood-derived CD4^+ T cells purified by negative selection and lysed in 350 μL of RLT buffer at −80°C, using Qiagen Micro RNEasy columns, and RNA quality was assessed using an Agilent Bioanalyzer. Following this, 2 ng of total RNA was used as input for mRNA amplification using 5′ template switch PCR with the Clontech SMART-seq v4 Ultra Low Input RNA kit according to the manufacturer’s instructions. Amplified mRNA was fragmented and appended with dual-index bar codes using Illumina NexteraXT DNA library preparation kits. Libraries were validated by capillary electrophoresis on an Agilent 4200 TapeStation, pooled and sequenced on an Illumina HiSeq 3000 using 100-bp single reads at an average depth of 25 million reads. Alignment was performed using STAR version 2.7.3a ([36]) and transcripts were annotated using a composite reference of rhesus macaque (Mmul10 Ensembl release 100).
# Statistical analyses were performed using GraphPad Prism Software (v.7 or v.8). P ≤ 0.05 was considered statistically significant. To compare differences in pre-ART viral loads between experimental groups in Fig. 2D and SIV DNA levels in Fig. 3C a two-sided Mann-Whitney test was used. To test the statistical significance observed in Ki67 expression on memory CD4^+ and CD8^+ T cells in Fig. 3B, BIRC3, NFKB2 gene expression in Fig. 6A and B, and SIV RNA expression in Fig. 6C and D. A Wilcoxon matched-pairs signed-rank test was used. For RNA-seq analysis in Fig. 5, RNA-seq data were mapped to the NCBI Mmul10 assembly of the Indian rhesus macaque genome, and alignment was performed with STAR (v.2.7.3a) using Ensemble release 100 annotations as a transcript annotation and splice junction reference. Transcript abundance estimates were calculated internal to the STAR aligner using the algorithm of htseq-count ([37]). DESeq2 ([38]) was used for normalization and differential expression analysis. Gene set enrichment analysis ([39]) (GSEA), performed with the GSEA desktop module (available at https://www.broadinstitute.org/gsea/) and the Molecular Signatures Database (MSigDB), was used to determine pathway/gene set enrichment. Heat maps, volcano plots, and principal-component analysis plots were generated with the R (v 3.6.0) package ggplot2.
# [3] = system: SIV gag DNA in CD4+ T cells; test: Cell-associated SIV DNA / RNA in CD4+ T cells; format: in vivo; settings: before dose 1, 3dp- and 2wp-AZD5582 treatment, infant RMs
# Procedure: Plasma viral quantification was performed as described previously ([12]). The frozen cell pellet was lysed with proteinase K (100 μg/mL in 10 mM Tris-HCl pH 8) for 1h at 56°C. Quantification of SIVmac gag DNA was performed by quantitative PCR (qPCR) using the 5′ nuclease (TaqMan) assay with an ABI7500 system (PerkinElmer Life Sciences). The sequence of the forward primer for SIVmac gag was 5′-[…]-3′, the reverse primer sequence was 5′-[…]-3′, and the probe sequence was 5′-6-carboxyfluorescein (FAM)-[…]-6-carboxytetramethylrhodamine (TAMRA)-3′. 7.5 μL of cell lysate were mixed in a 50 μL reaction mixture containing 1× Platinum Buffer, 3.5 mM MgCl2, 0.2 mM dNTP, primers 200 nM, probe 150 nM, and 2U Platinum Taq. For cell number quantification, quantitative PCR was performed simultaneously for monkey albumin gene copy number. The sequence of the forward primer for albumin was F 5′-[…]-3′; the reverse primer sequence was 5′- ATGGTCGCCTGTTCACCAA-3′ and the probe sequence was 5′-[…]-3′ ([34]). The reactions were performed on a 7500 real-time PCR system (Applied Biosystems) with the following thermal program: 10 min at 95°C, followed by 40 cycles of denaturation at 95°C for 15 s and annealing at 60°C for 1 min.
# [4] = rhesus monkey, in vivo, iv, 0.1 mg/kg
# [5] = infant RMs, CD4+ T cells, post-dose 10 vs pre-dose 1
compound,measurement,setting,value
CN[C@@H](C)C(=O)N[C@H](C(=O)N1CCC[C@H]1C(=O)N[C@H]1c2ccccc2C[C@H]1OCC#CC#CCO[C@@H]1Cc2ccccc2[C@@H]1NC(=O)[C@@H]1CCCN1C(=O)[C@@H](NC(=O)[C@H](C)NC)C1CCCCC1)C1CCCCC1 [AZD5582],Fold lower AUC0-2h in infants compared with adults,[1]; infant vs adult RMs,2.3 fold
same,AUC0-2h,[1]; [4],223 ng·h/mL
same,AUC0-24h,[1]; [4],239 ng·h/mL
same,Cmax,[1]; [4],294 ng/mL
same,t1/2 (terminal elimination halflife),[1]; [4],9.9 h
same,BIRC3 and BIRC5 expression in CD4+ T cells,[2]; AZD5582 treated infant and adult RMs,most significantly upregulated
same,Genes downregulated following AZD5582 treatment,[2]; [5],176 genes
same,Genes upregulated following AZD5582 treatment,[2]; [5],855 genes
same,Genes differentially expressed following AZD5582 treatment,"[2]; infant RMs, CD4+ T cells, post-dose 10 vs pre-dose 1, FDR 5%, linear fold change 50%","1,031 genes"
same,"Expression of RELB, NFKB2 and NFKBIA in CD4+ T cells",[2]; treated infant RMs,did not observe increased expression
same,Cell-associated SIV RNA in peripheral CD4+ T cells,[3],remained stable
